This is an account of results in patent US10813920B2, “Drug for treating corneal endothelium by promoting cell proliferation or inhibiting cell damage” (THE DOSHISHA, priority 2013, dated 2020).

What all share (assay type): cell-based
Experiment [1] concerns cynomolgus monkey corneal endothelial cells. Description: BrdU ELISA, one concentration per agent, monkey corneal endothelial cells (Example 9). The conditions noted are these: 10 μM SB203580, 1 μM Semapimod, 3 μM BIRB796, 1 μM PH-797804, 3 μM VX-702, 3 μM LY2228820, 3 μM TAK-715, * p<0.01. The protocol: The medium was removed from a culture dish culturing cynomolgus monkey corneal endothelial cells. PBS (-) heated to 37° C. in advance was added thereto and the cells were washed. This operation was repeated twice. After removing the PBS (-), 0.05% Trypsin-EDTA (NacalaiTesque, 35554-64) was added and the cells were incubated for 10 minutes at 37° C. (5% CO2). The cells were then suspended in DMEM (Nacalai Tesque, 08456-94)+10% FBS (Biowest, S1820-500)+1% penicillin/streptomycin (Nacalai Tesque, catalog number: 26252-94) and centrifuged for 3 minutes at 1200 rpm to collect the cells. A 96-well plate was treated with an FNC coating mix (50 ml ([…], catalog number: 0407). The monkey corneal endothelial cells (lot: 20120404-3L-P9) were seeded in the coated 96-well plate at a ratio of 3000 cells/well. The cells were cultured for 30 hours at 37° C. (5% CO2). After 30 hours, the medium was removed and changed to a serum free medium: DMEM+1% P/S to culture the cells for 18 hours. […] SMC20120918), BIRB796 (Doramapimod) (Selleck Chemicals, catalog number: S1574, lot number: S157402), PH-797804 (Selleck Chemicals, catalog number: S2726, lot number: 01), VX-702 (Selleck Chemicals, catalog number: S6005, lot number: 02), LY2228820 (Selleck Chemicals, catalog number: S1494, lot number: 01), and TAK-715 (Selleck Chemical, catalog number: […] DMSO was added to the control. After 24 hours, a BrdU labeling reagent (Amersham Cell Proliferation Biotrak ELISA System, Version 2, GE Healthcare, catalog number: RPN250) was further added at a ratio of 1:1000 to the DMEM+10% FBS+1% P/S medium. […] DMSO was added to the control. After 24 hours, BrdU ELISA was carried out with Amersham Cell Proliferation Biotrak ELISA System, Version 2 (GE Healthcare, catalog number: RPN250). The absorbance at 450 nm was measured.
For orientation: Dividing cells build labelled thymidine or BrdU into new DNA.

The test system of experiment [2] is human corneal endothelial cells. Description: BrdU ELISA, one concentration per agent, human corneal endothelial cells (Example 9). The note with it: 10 μM SB203580, 1 μM Semapimod, 3 μM BIRB796, 1 μM PH-797804, 3 μM VX-702, 3 μM LY2228820, 3 μM TAK-715, * p<0.01. Here is the method: The medium was removed from a culture dish culturing human corneal endothelial cells. PBS (-) heated to 37° C. in advance was added thereto and the cells were washed. This operation was repeated twice. After removing the PBS (-) TrypLE Select (×10) (GIBCO, A12177-01) was added and the cells were incubated for 10 minutes at 37° C. (5% CO2). The cells were then suspended in Opti-MEM (GIBCO, 31985-070) and centrifuged for 3 minutes at 1200 rpm to collect the cells. A 96-well plate was treated with an FNC coating mix (50 ml ([…], catalog number: 0407). The human corneal endothelial cells (lot: C1642-P8) were seeded in a Condition Medium for humans in the coated 96-well plate at a ratio of 3000 cells/well. The cells were cultured for 30 hours at 37° C. (5% CO2). After 30 hours, the medium was removed and changed to a serum free medium: Opti-MEM+1% P/S to culture the cells for 18 hours. […] SMC20120918), BIRB796 (Doramapimod) (Selleck Chemicals, catalog number: S1574, lot number: S157402), PH-797804 (Selleck Chemicals, catalog number: S2726, lot number: 01), VX-702 (Selleck Chemicals, catalog number: S6005, lot number: 02), LY2228820 (Selleck Chemicals, catalog number: S1494, lot number: 01), and TAK-715 (Selleck Chemical, catalog number: […] DMSO was added to the control. After 24 hours, a BrdU labeling reagent (Amersham Cell Proliferation Biotrak ELISA System, Version 2, GE Healthcare, catalog number: RPN250) was further added at a ratio of 1:1000 to the DMEM+10% FBS+1% P/S medium. […] DMSO was added to the control. After 24 hours, BrdU ELISA was carried out with Amersham Cell Proliferation Biotrak ELISA System, Version 2 (GE Healthcare, catalog number: RPN250). The absorbance at 450 nm was measured.

The next experiment concerns corneal endothelium. The experiment can be described thus: UV-induced apoptosis of corneal endothelium in rabbit sclerocornea segments, Annexin V and DAPI staining. The note with it: rabbit corneal tissue; UV 100 J/m^2; stored 24 hours at 4° C.; 10 μM SB203580, 3 μM BIRB796, 1 μM PH-797804, 3 μM VX-702, 3 μM LY2228820, 3 μM TAK-715. The protocol: The experiment used a rabbit eye ball 0-24 hours after euthanasia. Sclerocornea was removed along the corneal limbus under a stereo microscope by using spring scissors. The crystalline lens and iris were removed to make a sclerocornea segment. […] After dividing a cornea, pretreatment was applied to the Control group for 2 hours in the dark with Optisol-GS® (Bausch & Lomb) (Lot. […] After washing the cornea twice with PBS(−), 100 J/m^2 of UV was irradiated onto the corneal endothelial cells, which were against stored for 24 hours at 4° C. […] The sclerocornea segments were washed with PBS(−), and MEBCYTO-Apoptosis kit (Annexin V-FITC kit) (MBL) (Lot. 027FA) was used for Annexin V and DAPI staining. The segments were immersed and immobilized for 30 minutes in −30° C. ice-cooled 95% ethanol. In order to remove ethanol components, PBS(−) was exchanged every 5 minutes and the segments were washed three times. An antifading agent was then added and enclosed. Annexin V and nuclei was observed by fluorescence imaging under a confocal microscope. The percentage of Annexin V positive cells were calculated in the above-described rabbit corneal tissue. *p<0.05 (Dunnett's test).

Regarding `CC(C)(C)Cn1c(N)nc2ccc(-c3nc(C(C)(C)C)[nH]c3-c3ccc(F)cc3)nc21` [LY2228820, 5-(2-(tert-butyl)-5-(4-fluorophenyl)-1H-imidazole-4-yl)-3-neopentyl-3H-imidazo[4,5-b]pyridine-2-amine], the “BrdU uptake as a percentage with respect to the control (proliferation)” value (from here on “BrdU uptake as a percentage”) in experiment [1] and in experiment [2] was “promotes proliferation” in each case. For the same compound, the “Apoptosis induced by UV (annexin V staining)” value (from here on “Apoptosis induced by UV”) in the experiment on corneal endothelium was “suppressed”.
With `Cc1ccc(-n2nc(C(C)(C)C)cc2NC(=O)Nc2ccc(OCCN3CCOCC3)c3ccccc23)cc1` [BIRB796, N-[3-tert-butyl-1-(4-methylphenyl)pyrazole-5-yl]-N′-[4-(2-morpholinoethoxy)-1-naphthyl]urea], the “BrdU uptake as a percentage” value in experiment [1] and in experiment [2] was “promotes proliferation” each time. Moreover, the “Apoptosis induced by UV” value in the experiment with corneal endothelium was “suppressed”.
For `CCc1nc(-c2cccc(C)c2)c(-c2ccnc(NC(=O)c3ccccc3)c2)s1` [TAK-715, 2-benzamide-4-[2-ethyl-4-(3-methylphenyl)thiazole-5-yl]pyridine], the “BrdU uptake as a percentage” value in experiment [1] and in experiment [2] was “promotes proliferation” throughout. Further, in the experiment on corneal endothelium, the “Apoptosis induced by UV” value was “suppressed”.
As to `CNC(=O)c1ccc(C)c(-n2c(C)cc(OCc3ccc(F)cc3F)c(Br)c2=O)c1` [PH-797804, 3-(3-bromo-4-((2,4-difluorobenzyl)oxy)-6-methyl-2-oxopyridine-1(2H)-yl)-N,4-dimethylbenzamide], the “BrdU uptake as a percentage” value in experiment [1] and in experiment [2] was “promotes proliferation” throughout. The “Apoptosis induced by UV” value in the experiment with corneal endothelium is “suppressed”.
Consider `C[S+]([O-])c1ccc(-c2nc(-c3ccncc3)c(-c3ccc(F)cc3)[nH]2)cc1` (stereo not drawn) [SB203580, 4-(4-fluorophenyl)-2-(4-methylsulfinylphenyl)-5-(4-pyridyl)-1H-imidazole], for which the “BrdU uptake as a percentage” value in experiment [1] and in experiment [2] was “promotes proliferation” in each case. For the same compound, in the experiment on corneal endothelium, the “Apoptosis induced by UV” value is “suppressed”.
